For series [1], the system named is SW-13 cells. The series is described as follows: Caspase 3/7 Glo assay for apoptosis. The class given is cell-based. The note with it: for induction of apoptosis (caspase 3/7 activity), single compound: SW-13 (mutant p53), 8, 16, 24 and 48 hours. The protocol:
(§1) ACC cell lines were plated and 24 hours later, 0.5 μM, 1 μM, 2.5 μM, and 5 μM of doxorubicin was added to the cultures. […] Data was normalized to cells alone, then to vehicle alone and expressed as a percentage of vehicle alone. […] H295R cells were plated at a density of 1750 cells/well in 40 μl of medium and SW-13 was plated at 1250 cells/wells in 40 μl DMEM with 2% FBS. […] Percent caspase 3/7 activity was normalized to cells and to DMSO control. […] […] Doxorubicin (Tocris, Minneapolis, Minn.) was used as a positive control for induction of apoptosis.

Series [2] relates to H295R cells. The series can be described thus: Caspase 3/7 Glo assay for apoptosis. The class given is cell-based. The note with it: for induction of apoptosis (caspase 3/7 activity), single compound: H295R (wild type p53), 8, 16, 24 and 48 hours. The protocol:
as §1

In series [3] the test system is TP53 (p53) transcript. The series is described as follows: RT-qPCR of p53 mRNA levels. The class given is cell-based. The note with it: either of the two cell lines (H295R, SW-13). The protocol: (§2) 6×10^5 SW-13 and 7.5×10^5 H295R cells were plated in 10 cm^2 dishes in 10 ml of media. […] Total RNA was extracted 24 hours later using the mirVana miRNA Isolation Kit (Ambion, Inc, Grand Island, N.Y.) as per the manufacturer's protocol.
(§3) Total RNA was reverse transcribed utilizing both random hexamer and oligo-dT primers and the RT^2 First Strand cDNA Synthesis Kit (SABiosciences, Valencia, Calif.). The resulting cDNA was amplified on the iQ5 Real-Time PCR Detection System (Bio-Rad Laboratories, Inc, Hercules, Calif.) using primer sets for TP53 (p53), CDKN1A (p21) and ACTB (β-actin) and RT^2 SYBR Green Master Mix (all from SABiosciences, Valencia, Calif.) and run according to manufacturer's instructions. Melting curve analysis was performed to evaluate primer set specificity. Fold difference relative to […], which was used as the reference gene, was calculated using the Pfaffl method taking into account reaction efficiencies.

Series [4] concerns MDM2 protein. The series can be described thus: Western blot of MDM2 protein after BI-2536. Format: cell-based. The note with it: H295R and SW-13; BI-2536 24 hours. The protocol: 6×10^5 SW-13 and 7.5×10^5 H295R cells were plated in 10 cm^2 dishes in 10 ml of media. […] Cells were lysed with RIPA buffer with protease and phosphatase inhibitors, and the resulting protein lysate quantitated by BCA (Pierce, Thermo Scientific, Pittsburgh, Pa.). Thirty micrograms of protein were loaded onto 4-12% Bis-Tris pre-cast gels (Invitrogen, Carlsbad, Calif.) and allowed to separate at 150V for 1 hour. The gels were then transferred onto PVDF membranes for 7 minutes using the iBLOT western transfer system (Invitrogen, Carlsbad, Calif.) at room temperature. […] The membranes were developed using the SuperSignal West Femto Chemiluminescent Substrate (Pierce, Thermo Scientific, Pittsburgh, Pa.) and were visualized and quantitated with the Bio Spectrum 500 Imaging System (UVP, Cambridge, UK).
The blots were processed as described above for the detection of β-Actin (AbCam, Cambridge, Mass.) in 5% blocking solution which was used as an internal loading control. […] The actin membranes were also detected using the SuperSignal West Femto Chemiluminescent Substrate (Pierce, Thermo Scientific, Pittsburgh, Pa.) and were visualized and quantitated with the Bio Spectrum 500 Imaging System (UVP, Cambridge, UK) and relative amounts of PLK-1, MDM2 and p53 protein are reported relative to β-Actin. […]

The subject of series [5] is CDKN1A (p21) transcript. The series can be described thus: RT-qPCR of p21 mRNA levels. The class given is cell-based. The protocol: as §2, §3
The subject of series [6] is SW-13 cells. The series can be described thus: In vitro drug dose-response, cell viability by CellTiter Glo. The class given is cell-based. The protocol:
(§4) H295R cells were plated at a density of 1750 cells/well in 40 μl of medium and SW-13 cells were plated at 1250 cells/wells in 40 μl DMEM with 2% FBS in white 384-well plates and allowed to attach for 24 hours. […] Cell viability was normalized to cells alone and DMSO controls. […].
(§5) Dose response curves and IC50 values for cell survival in the presence of the drugs were calculated using Prism software (GraphPad) using the log(inhibitor) vs. response—4 parameter function which fits the following equation: Y=Bottom+(Top-Bottom)/[1+10̂(X−Log IC50)] where X is the logarithm of concentration and Y is the percent cell survival. Y starts at the top and goes to bottom with a sigmoid shape as X increases. All experiments were done at least three technical replicates and values are represented as averages with standard error.

Series [7] deals with H295R cells. Described as above. Format: cell-based. The protocol: as §4, §5
In series [8] the test system is BD140 lines. The series is described as follows: Caspase 3/7 Glo assay for apoptosis. The class given is cell-based. The protocol: ACC cell lines SW-13 and H295R were obtained from ATCC and authenticated by STR analysis on Aug. 24, 2012. BD140 lines (A-C) represent distinct subclones established from the tumor of ACC140. BD167 was also established. They are positive for DHEAS expression, confirming adrenocortical origin. SW-13 and the […] were grown in DMEM supplemented with 10% FBS, 1% L-glutamine, 1% […] (ITS), and penicillin-streptomycin. BD140-A, BD140-B and BD167 were grown in RPMI supplemented with 10% FBS, 1% L-glutamine, 1% ITS, and penicillin-streptomycin. H295R was grown in DMEM:F12 supplemented with 2.5% NuSerum, 1% L-glutamine, 1% ITS, and penicillin-streptomycin. All cells lines were grown at 37° C. in a 5% CO2 atmosphere.
ACC cell lines were plated and 24 hours later, 0.5 μM, 1 μM, 2.5 μM, and 5 μM of doxorubicin was added to the cultures. The activity of caspases 3 and 7 was assessed using Caspase 3/7 Glo (Promega, Madison, Wis.) at 8, 24, and 48 hours after drug addition according to manufacturer's instructions. Data was normalized to cells alone, then to vehicle alone and expressed as a percentage of vehicle alone.

The subject of series [9] is adrenocortical carcinoma. The note with it: cited from earlier work.

With `CC[C@@H]1C(=O)N(C)c2cnc(Nc3ccc(C(=O)NC4CCN(C)CC4)cc3OC)nc2N1C1CCCC1` [BI-2536], the “time of maximum induction of apoptosis” value in [1] (SW-13) came to 48 h. Also, the “induction of apoptosis (caspase 3/7 activity), single compound” value in [1] and in [2] was “robust induction of apoptosis” each time. Moreover, the “levels of p53 transcript” value in series [3] is reported as “did not significantly affect”. The “levels of the MDM2 protein” value in series [4] is listed as “does not affect”. Also, the “transcription of CDKN1A (p21)” value in [5] (H295R, wild type p53) was “general trend of increased transcription”. The “amount of CDKN1A message” value in series [5] (SW-13, mutant p53) is listed as “reduced”. The “IC10 (cell viability)” value in series [6] came out at 0.0222 µM; in [7], 0.00565 µM.

`COc1cccc2c1C(=O)c1c(O)c3c(c(O)c1C2=O)C[C@@](O)(C(=O)CO)C[C@@H]3O[C@H]1C[C@H](N)[C@H](O)[C@H](C)O1` [doxorubicin]: the “time to significant induction of caspase 3/7 activation following doxorubicin exposure” value in [1] (SW-13, 0.5-5 μM) is at most 8 h. For the same compound, in [2] (H295R, 0.5-5 μM, 8, 24, 48 hours), the “caspase 3/7 activation (apoptosis) following doxorubicin exposure” value is recorded as “delayed”. The “induction of caspase 3/7 activity” value in [8] (0.5 μM and 1 μM) is given as “not seen until 48 hours”; in [8] (2.5 μM and 5 μM, by 24 hours), “moderate induction”.

As for `Clc1ccc(C(c2ccccc2Cl)C(Cl)Cl)cc1` (stereo not shown) [mitotane], the “survival of patients whose tumors respond” value in series [9] (improved from 14 months) is 50 months. Moreover, the response rate in series [9] (mitotane as a single agent) was 23%. The tolerability entry in series [9] (most patients, severe toxic side effects) was “poorly tolerated”.

For `COc1ccc(C2=N[C@@H](c3ccc(Cl)cc3)[C@@H](c3ccc(Cl)cc3)N2C(=O)N2CCNC(=O)C2)c(OC(C)C)c1` [nutlin-3], the entries for the “induction of apoptosis (caspase 3/7 activity), single compound” value in series [1] and in [2] were “small increase in apoptosis” and “restored the apoptotic response”, respectively. The “cell viability (in words)” value in series [6] and in [7] was “decreased” in each case. The IC50 came out at 19.8 µM in series [6] (CellTiter Glo, 96 hours, combination: BI-2536 kept constant at IC25, nutlin-3 serially diluted) and 12.8 µM in [7] (CellTiter Glo, combination: BI-2536 kept constant at IC25, nutlin-3 serially diluted).

Values taken from patent publication US20160038498A1, “METHODS FOR THE TREATMENT OF CANCER” (The Translational Genomics Research Institute, priority 2013, published 2016).
